Assays:
Type in all cases: functional
Escherichia coli [1] = test: Antibacterial activity against Escherichia coli Ec9381 transconjugant harboring IncL/M plasmid and blaIMP-4-qacG2-aacA4-catB3 array by Etest method in presence of clavulanic acid
Klebsiella pneumoniae [2] = test: Antibacterial activity against Klebsiella pneumoniae isolate Kp4614 in presence of clavulanic acid
Serratia marcescens [3] = test: Antibacterial activity against Serratia marcescens isolate Sm211 harboring IncA/C plasmid and blaIMP-4-qacG2-aacA4-catB3 array by Etest method in presence of clavulanic acid
Escherichia coli [4] = test: Antibacterial activity against Escherichia coli isolate Ec221 harboring IncA/C plasmid and blaIMP-4-qacG2-aacA4-catB3 array by Etest method in presence of clavulanic acid
Serratia marcescens [5] = test: Antibacterial activity against Serratia marcescens isolate Sm2723 harboring IncL/M plasmid and blaIMP-4-qacG2-aacA4-catB3 array by Etest method in presence of clavulanic acid
Klebsiella pneumoniae [6] = test: Antibacterial activity against Klebsiella pneumoniae Kp3799 transconjugant harboring IncL/M plasmid and blaIMP-4-qacG2-aacA4-catB3 array by Etest method in presence of clavulanic acid
Enterobacter cloacae [7] = test: Antibacterial activity against Enterobacter cloacae isolate El3799 harboring IncL/M plasmid and blaIMP-4-qacG2-aacA4-catB3 array by Etest method in presence of clavulanic acid
Serratia marcescens [8] = test: Antibacterial activity against Serratia marcescens isolate Sm201 harboring IncA/C plasmid and blaIMP-4-qacG2-aacA4-catB3 array by Etest method in presence of clavulanic acid
Serratia marcescens [9] = test: Antibacterial activity against Serratia marcescens isolate Sm220 harboring IncA/C plasmid and blaIMP-4-qacG2-aacA4-catB3 array by Etest method in presence of clavulanic acid
Acinetobacter baumannii = test: Antibacterial activity against Acinetobacter baumannii isolate AbN450 harboring blaIMP-4-qacG2-aacA4-catB3 array by Etest method in presence of clavulanic acid
Acinetobacter = test: Antibacterial activity against Acinetobacter isolate A74510 harboring blaIMP-4-qacG2-aacA4-catB3 array by Etest method in presence of clavulanic acid
Klebsiella pneumoniae [10] = test: Antibacterial activity against Klebsiella pneumoniae isolate Kp38045 harboring IncL/M plasmid and blaIMP-4-qacG2-aacA4-catB3 array by Etest method in presence of clavulanic acid
Citrobacter amalonaticus [11] = test: Antibacterial activity against Citrobacter amalonaticus Ca38009 transconjugant harboring IncL/M plasmid and blaIMP-4-qacG2-aacA4-catB3 array by Etest method in presence of clavulanic acid
Klebsiella pneumoniae [12] = test: Antibacterial activity against Klebsiella pneumoniae Kp38009 transconjugant harboring IncL/M plasmid and blaIMP-4-qacG2-aacA4-catB3 array by Etest method in presence of clavulanic acid
Klebsiella oxytoca [13] = test: Antibacterial activity against Klebsiella oxytoca isolate Ko1156 harboring IncL/M plasmid and blaIMP-4-qacG2-aacA4-catB3 array by Etest method in presence of clavulanic acid
Citrobacter amalonaticus [14] = test: Antibacterial activity against Citrobacter amalonaticus isolate Ca3927 harboring IncL/M plasmid and blaIMP-4-qacG2-aacA4-catB3 array by Etest method in presence of clavulanic acid
Enterobacter cloacae [15] = test: Antibacterial activity against Enterobacter cloacae isolate El3518 harboring IncL/M plasmid and blaIMP-4-qacG2-aacA4-catB3 array by Etest method in presence of clavulanic acid
Serratia marcescens [16] = test: Antibacterial activity against Serratia marcescens Sm265 transconjugant harboring IncA/C plasmid and blaIMP-4-qacG2-aacA4-catB3 array by Etest method in presence of clavulanic acid
Citrobacter amalonaticus [17] = test: Antibacterial activity against Citrobacter amalonaticus isolate Ca1614 harboring IncL/M plasmid and blaIMP-4-qacG2-aacA4-catB3 array by Etest method in presence of clavulanic acid
Klebsiella pneumoniae [18] = test: Antibacterial activity against Klebsiella pneumoniae Kp7564 transconjugant harboring IncL/M plasmid and blaIMP-4-qacG2-aacA4-catB3 array by Etest method in presence of clavulanic acid
Escherichia coli [19] = test: Antibacterial activity against Escherichia coli Ec158 transconjugant harboring IncA/C plasmid and blaIMP-4-qacG2-aacA4-catB3 array by Etest method in presence of clavulanic acid
Enterobacter cloacae [20] = test: Antibacterial activity against Enterobacter cloacae isolate El3280 harboring IncL/M plasmid and blaIMP-4-qacG2-aacA4-catB3 array by Etest method in presence of clavulanic acid
Enterobacter cloacae [21] = test: Antibacterial activity against Enterobacter cloacae isolate El216 harboring IncA/C plasmid and blaIMP-4-qacG2-aacA4-catB3 array by Etest method in presence of clavulanic acid
Morganella morganii [22] = test: Antibacterial activity against Morganella morganii isolate Mm1229 harboring IncL/M plasmid and blaIMP-4-qacG2-aacA4-catB3 array by Etest method in presence of clavulanic acid
Morganella morganii [23] = test: Antibacterial activity against Morganella morganii isolate Mm1614 harboring IncL/M plasmid and blaIMP-4-qacG2-aacA4-catB3 array by Etest method in presence of clavulanic acid
Klebsiella oxytoca [24] = test: Antibacterial activity against Klebsiella oxytoca Ko238 transconjugant harboring IncA/C plasmid and blaIMP-4-qacG2-aacA4-catB3 array by Etest method in presence of clavulanic acid
Escherichia coli [25] = test: Antibacterial activity against Escherichia coli isolate Ec9381 harboring IncL/M plasmid and blaIMP-4-qacG2-aacA4-catB3 array by Etest method in presence of clavulanic acid
Klebsiella oxytoca [26] = test: Antibacterial activity against Klebsiella oxytoca isolate Ko0426 harboring IncL/M plasmid and blaIMP-4-qacG2-aacA4-catB3 array by Etest method in presence of clavulanic acid
Klebsiella pneumoniae [27] = test: Antibacterial activity against Klebsiella pneumoniae isolate Kp211 harboring IncA/C plasmid and blaIMP-4-qacG2-aacA4-catB3 array by Etest method in presence of clavulanic acid
Klebsiella pneumoniae [28] = test: Antibacterial activity against Klebsiella pneumoniae isolate Kp38009 harboring IncL/M plasmid and blaIMP-4-qacG2-aacA4-catB3 array by Etest method in presence of clavulanic acid
Klebsiella pneumoniae [29] = test: Antibacterial activity against Klebsiella pneumoniae isolate Kp149 harboring IncA/C plasmid and blaIMP-4-qacG2-aacA4-catB3 array by Etest method in presence of clavulanic acid
Enterobacter cloacae [30] = test: Antibacterial activity against Enterobacter cloacae isolate El1573 harboring IncL/M plasmid and blaIMP-4-qacG2-aacA4-catB3 array by Etest method in presence of clavulanic acid
Klebsiella pneumoniae [31] = test: Antibacterial activity against Klebsiella pneumoniae isolate Kp266 harboring IncA/C plasmid and blaIMP-4-qacG2-aacA4-catB3 array by Etest method in presence of clavulanic acid
Enterobacter cloacae [32] = test: Antibacterial activity against Enterobacter cloacae El1573 transconjugant harboring IncL/M plasmid and blaIMP-4-qacG2-aacA4-catB3 array by Etest method in presence of clavulanic acid
Morganella morganii [33] = test: Antibacterial activity against Morganella morganii isolate Mm38009 harboring IncL/M plasmid and blaIMP-4-qacG2-aacA4-catB3 array by Etest method in presence of clavulanic acid
Serratia marcescens [34] = test: Antibacterial activity against Serratia marcescens isolate Sm203 harboring IncA/C plasmid and blaIMP-4-qacG2-aacA4-catB3 array by Etest method in presence of clavulanic acid
Escherichia coli [35] = test: Antibacterial activity against Escherichia coli Ec221 transconjugant harboring IncA/C plasmid and blaIMP-4-qacG2-aacA4-catB3 array by Etest method in presence of clavulanic acid

Measured: MIC

CC1(C)S[C@@H]2[C@H](NC(=O)[C@H](N)c3ccc(O)cc3)C(=O)N2[C@H]1C(=O)O [AMOXICILLIN]
> 16 µg/mL: all assays above
